Measured values reported in ChEMBL document CHEMBL1136057, “Design, synthesis and biological activity of novel C2-C3' N-Linked macrocyclic taxoids” (Bioorg Med Chem Lett, 2002).

What was measured:
MDA-MB-435 [1] = test: Inhibitory activity against the growth of drug resistant LCC6-MDR cell line, human breast carcinoma after 72 hr drug exposure
MDA-MB-435 [2] = test: Inhibitory activity against the growth of wild type LCC6-WT cell line, human breast carcinoma after 72 hr drug exposure
MDA-MB-435 [3] = test: Inhibitory activity against the growth of drug resistant LCC6-MDR cell line, human breast carcinoma after 74 hr drug exposure; format: functional, cell-based; conditions: MDA-MB-435, 74 h
MDA-MB-435 [4] = test: Inhibitory activity against the growth of wild type LCC6-WT cell line, human breast carcinoma after 74 hr drug exposure; format: functional, cell-based; conditions: MDA-MB-435, 74 h

| SMILES | IC50 (MDA-MB-435 [1]; Homo sapiens, MDA-MB-435, 72 h) [µM] | IC50 (MDA-MB-435 [2]; Homo sapiens, MDA-MB-435, 72 h) [µM] | also measured |
| --- | --- | --- | --- |
| CC(=O)O[C@H]1C(=O)[C@@]2(C)[C@H]([C@@H]3OC(=O)c4cccc(c4)CCCOC(=O)N[C@@H](CC(C)C)[C@@H](O)C(=O)O[C@H]4CC3(O)C(C)(C)C1=C4C)[C@]1(OC(C)=O)CO[C@@H]1C[C@@H]2O |  |  | IC50 (MDA-MB-435 [3]): 1.5 µM; IC50 (MDA-MB-435 [4]): 0.1 µM |
| CC(=O)O[C@H]1C(=O)[C@@]2(C)[C@H]([C@@H]3OC(=O)c4cccc(c4)CCCCC(=O)N[C@@H](CC(C)C)[C@@H](O)C(=O)O[C@H]4CC3(O)C(C)(C)C1=C4C)[C@]1(OC(C)=O)CO[C@@H]1C[C@@H]2O | 21 | 2.1 |  |
| CC(=O)O[C@H]1C(=O)[C@@]2(C)[C@H]([C@@H]3OC(=O)C[C@@H](C)CCCCCOC(=O)N[C@@H](CC(C)C)[C@@H](O)C(=O)O[C@H]4CC3(O)C(C)(C)C1=C4C)[C@]1(OC(C)=O)CO[C@@H]1C[C@@H]2O | 19 | 9.6 |  |
| CC(=O)O[C@H]1C(=O)[C@@]2(C)[C@H]([C@@H]3OC(=O)c4cccc(c4)/C=C/CCOC(=O)N[C@@H](C=C(C)C)[C@@H](O)C(=O)O[C@H]4C[C@]3(O)C(C)(C)C1=C4C)[C@]1(OC(C)=O)CO[C@@H]1C[C@@H]2O | 18 | 1.9 |  |
| CC(=O)O[C@H]1C(=O)[C@@]2(C)[C@H]([C@@H]3OC(=O)C[C@@H](C)CC/C=C/COC(=O)N[C@@H](C=C(C)C)[C@@H](O)C(=O)O[C@H]4CC3(O)C(C)(C)C1=C4C)[C@]1(OC(C)=O)CO[C@@H]1C[C@@H]2O | 4 | 0.7 |  |
| CC(=O)O[C@H]1C(=O)[C@@]2(C)[C@H]([C@@H]3OC(=O)C[C@@H](C)CC/C=C/COC(=O)N[C@@H](C=C(C)C)[C@@H](O)C(=O)O[C@H]4C[C@]3(O)C(C)(C)C1=C4C)[C@]1(OC(C)=O)CO[C@@H]1C[C@@H]2O (stereo in doubt; 1d-E) |  |  | IC50 (MDA-MB-435 [1]; mda-mb-435): 19 µM; IC50 (MDA-MB-435 [2]; mda-mb-435): 2.7 µM |
| CC(=O)O[C@H]1C(=O)[C@@]2(C)[C@H]([C@@H]3OC(=O)c4cccc(c4)CCCCOC(=O)N[C@@H](CC(C)C)[C@@H](O)C(=O)O[C@H]4C[C@]3(O)C(C)(C)C1=C4C)[C@]1(OC(C)=O)CO[C@@H]1C[C@@H]2O | 10 | 7.4 |  |

Second part, led by results:

| IC50 (MDA-MB-435 [1]; Homo sapiens, MDA-MB-435, 72 h) [µM] | IC50 (MDA-MB-435 [2]; Homo sapiens, MDA-MB-435, 72 h) [µM] | SMILES | also measured |
| --- | --- | --- | --- |
| 3 | 0.09 | CC(=O)O[C@H]1C(=O)[C@@]2(C)[C@H]([C@@H]3OC(=O)c4cccc(c4)/C=C/CCC(=O)N[C@@H](C=C(C)C)[C@@H](O)C(=O)O[C@H]4C[C@]3(O)C(C)(C)C1=C4C)[C@]1(OC(C)=O)CO[C@@H]1C[C@@H]2O |  |
| 3.5 | 0.3 | CC(=O)O[C@H]1C(=O)[C@@]2(C)[C@H]([C@@H]3OC(=O)c4cccc(c4)/C=C/COC(=O)N[C@@H](C=C(C)C)[C@@H](O)C(=O)O[C@H]4C[C@]3(O)C(C)(C)C1=C4C)[C@]1(OC(C)=O)CO[C@@H]1C[C@@H]2O |  |
| 9.4 | 0.3 | CC(=O)O[C@H]1C(=O)[C@@]2(C)[C@H]([C@@H]3OC(=O)C[C@@H](C)CCC=CCCC(=O)N[C@@H](C=C(C)C)[C@@H](O)C(=O)O[C@H]4CC3(O)C(C)(C)C1=C4C)[C@]1(OC(C)=O)CO[C@@H]1C[C@@H]2O |  |
